Measurements taken from patent publication US20120282356A1, “COMPOSITIONS FOR PREVENTION AGAINST SPOILAGE BY MOULDS AND YEASTS AND USES AND PRODUCTS RELATED THERETO” (MARS INCORPORATED, priority 2009, published 2012).

Tested on: Aspergillus niger DSMZ 737
Assay: Minimum Inhibition Concentration (MIC) test in YG broth cell culture plates
Format: cell-based
Settings: substance alone, 3 days at 30° C., no visible growth of mycelium
Experimental: Further tests have been conducted to establish synergistic activity of the antimycotic cocktails of the present invention. These tests are based on determination of the Minimum Inhibition Concentration (MIC).
For the tests, cell culture plates with YG broth as a base were used. Test samples were inoculated with a conidial suspension of Aspergillus niger DSMZ 737 and incubated for 3 days at 30° C. The targeted spore count was at approximately 10^5 spores/ml. As Minimal Inhibition Concentration (MIC) the concentration of active ingredient with no visible growth of mycelium in the cavity was defined. In addition, results were confirmed microscopically and in a culture on YGC plates.
To dissolve the different mixtures, one of the following media was used as appropriate: distilled water; distilled water+0.5% Tween 80; distilled water+0.4% Lecithine.

CCCCCCCC(=O)O [caprylic acid]
MIC (Aspergillus niger, DSMZ737, 72 h): 2000 µg/mL

cinnamon aldehyde
Minimum Inhibition Concentration (MIC): 200 ppm

O=C(O)CC(O)C(=O)O (stereo not drawn) [malic acid]
Minimum Inhibition Concentration (MIC): no MIC
